Experimental data: ChEMBL document CHEMBL1201862, “PubChem BioAssay data set” (2004)
Active and inactive are the calls of the source.

Each compound was assayed against T1, Alkaline phosphatase, tissue-nonspecific isozyme (Homo sapiens, UniProt P05186) (assay: human TNAP enzyme inhibitors, SAR follow-up, biochemical, luminescent, dose response (AID 1056)).
T1 sequence (P05186 whole entry): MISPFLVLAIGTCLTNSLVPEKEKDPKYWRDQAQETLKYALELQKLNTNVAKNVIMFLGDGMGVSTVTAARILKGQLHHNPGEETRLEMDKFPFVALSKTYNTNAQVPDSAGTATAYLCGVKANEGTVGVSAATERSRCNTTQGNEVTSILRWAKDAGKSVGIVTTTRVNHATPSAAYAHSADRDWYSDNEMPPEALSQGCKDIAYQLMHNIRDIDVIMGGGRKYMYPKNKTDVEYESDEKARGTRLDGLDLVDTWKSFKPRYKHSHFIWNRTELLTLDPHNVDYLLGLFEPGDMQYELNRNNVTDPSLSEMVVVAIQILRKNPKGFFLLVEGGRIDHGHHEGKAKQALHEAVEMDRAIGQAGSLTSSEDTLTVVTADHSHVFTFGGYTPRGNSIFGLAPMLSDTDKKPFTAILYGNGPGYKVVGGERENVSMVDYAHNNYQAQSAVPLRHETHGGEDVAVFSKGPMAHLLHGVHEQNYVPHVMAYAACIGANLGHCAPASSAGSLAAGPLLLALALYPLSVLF
With `CC(C)(C)c1ccc(S(=O)(=O)Nc2cnc3ccccc3c2)cc1` the IC50 was > 100 µM (inactive).
With `COc1c(S(=O)(=O)Nc2cccnc2)ccc(Cl)c1Cl` the IC50 was > 100 µM (inactive).

Each compound was assayed against T2, Endoribonuclease toxin MazF (Escherichia coli K-12, UniProt P0AE70) (assay: MazF toxin RNase activators, dose response, biochemical, fluorescence, single-stranded RNA substrate, uHTS hits (AID 588481)).
T2 sequence (P0AE70 whole entry): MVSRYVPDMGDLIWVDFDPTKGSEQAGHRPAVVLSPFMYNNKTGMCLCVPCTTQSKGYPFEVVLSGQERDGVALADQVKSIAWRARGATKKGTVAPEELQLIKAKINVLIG
Type: functional
For `Cc1cc(NC(=O)/C(C#N)=C\c2ccc(-c3ccc(SC(F)F)cc3)o2)n(-c2ccccc2)n1`, the EC50 was > 99 µM (inactive).
In the case of `COC(=O)c1nn2c(C(F)(F)F)cc(-c3ccc(Br)o3)nc2c1Br`, the EC50 is reported as > 99 µM (inactive).
With `C=CCn1c(=O)/c(=C\c2ccccn2)s/c1=C(/C#N)C(=O)NCC1CCCO1` (stereo not drawn) the EC50 was > 99 µM (inactive).
With `CSc1ccc(S(=O)(=O)NCC(=O)OCCOc2ccccc2)cc1[N+](=O)[O-]` the EC50 was 25.8 µM (inactive).
For `CC(=O)CSc1nc2cc3c(cc2cc1C#N)OCCO3`, the EC50 was > 99 µM (inactive).
For `COc1ccccc1N1C(=O)S/C(=C\c2cc(C)n(C)c2C)C1=O`, the EC50 was > 99 µM (inactive).
In the case of `Cc1ccc(-c2ccccc2NC(=O)C[S+]([O-])CC(=O)Nc2ccc(C)c(Cl)c2)o1` (stereo not drawn), the EC50 is reported as 34.1 µM (inactive).

What follows are compounds tested against Glucose-6-phosphate 1-dehydrogenase (Homo sapiens, UniProt P11413) (assay: human G6PD enzyme inhibitors, dose response, selectivity assay for P. falciparum G6PD inhibitor project, biochemical, fluorescence (AID 504792)).
Glucose-6-phosphate 1-dehydrogenase, sequence (P11413 whole entry): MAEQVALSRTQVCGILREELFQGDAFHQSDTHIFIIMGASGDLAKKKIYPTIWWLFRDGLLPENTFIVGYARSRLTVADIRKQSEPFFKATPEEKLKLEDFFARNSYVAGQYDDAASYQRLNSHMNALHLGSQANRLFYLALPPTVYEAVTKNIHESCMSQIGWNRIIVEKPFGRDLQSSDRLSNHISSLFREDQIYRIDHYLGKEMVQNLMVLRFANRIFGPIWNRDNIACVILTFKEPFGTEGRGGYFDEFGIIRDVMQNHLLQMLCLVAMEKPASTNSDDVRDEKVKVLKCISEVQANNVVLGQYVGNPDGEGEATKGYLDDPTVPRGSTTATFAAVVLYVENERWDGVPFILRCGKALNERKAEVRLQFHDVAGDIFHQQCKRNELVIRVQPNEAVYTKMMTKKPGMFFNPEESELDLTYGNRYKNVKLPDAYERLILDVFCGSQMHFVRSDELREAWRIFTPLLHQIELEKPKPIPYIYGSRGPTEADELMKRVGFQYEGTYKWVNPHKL
Type: functional
`COC(=O)c1ccccc1/N=C/C1=C(O)c2c(C)nn(-c3ccccn3)c2CC1` was tested, and the IC50 was > 80 µM (inactive).
In the case of `Cc1nnc(N/N=C\c2ccc(-c3cccc(C(=O)O)c3)o2)n1N`, the IC50 is reported as 66.8 µM (inactive).
For `O=C(CSc1nc2cc(Cl)ccc2[nH]1)NC1CCCc2ccccc21` (stereo not drawn), the IC50 was > 80 µM (inactive).
For `O=C1Nc2cc(C(=O)NCCCN3CCCC3)ccc2S/C1=C/c1cccc(Cl)c1`, the IC50 was > 80 µM (inactive).
With `CCc1c(C#N)c(S)nc(C)c1C(=O)Nc1ccccc1` the IC50 was > 80 µM (inactive).

These compounds were tested against Glyceraldehyde-3-phosphate dehydrogenase (Homo sapiens, UniProt P04406).
Glyceraldehyde-3-phosphate dehydrogenase, sequence (P04406 whole entry): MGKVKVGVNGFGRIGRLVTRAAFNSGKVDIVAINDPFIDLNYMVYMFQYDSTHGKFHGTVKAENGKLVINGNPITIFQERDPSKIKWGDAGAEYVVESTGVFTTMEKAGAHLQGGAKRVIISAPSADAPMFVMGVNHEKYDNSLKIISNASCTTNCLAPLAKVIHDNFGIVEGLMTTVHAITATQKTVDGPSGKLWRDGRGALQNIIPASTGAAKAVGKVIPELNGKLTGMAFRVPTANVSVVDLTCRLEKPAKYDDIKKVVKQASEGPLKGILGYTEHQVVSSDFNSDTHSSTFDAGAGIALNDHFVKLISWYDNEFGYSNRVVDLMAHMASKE
With `CC(C)(C)c1ccc(S(=O)(=O)Nc2cnc3ccccc3c2)cc1` the IC50 was > 100 µM (not active).

Each compound was assayed against T3, DNA repair protein RAD52 homolog (Homo sapiens, UniProt P43351).
T3 sequence (P43351 whole entry): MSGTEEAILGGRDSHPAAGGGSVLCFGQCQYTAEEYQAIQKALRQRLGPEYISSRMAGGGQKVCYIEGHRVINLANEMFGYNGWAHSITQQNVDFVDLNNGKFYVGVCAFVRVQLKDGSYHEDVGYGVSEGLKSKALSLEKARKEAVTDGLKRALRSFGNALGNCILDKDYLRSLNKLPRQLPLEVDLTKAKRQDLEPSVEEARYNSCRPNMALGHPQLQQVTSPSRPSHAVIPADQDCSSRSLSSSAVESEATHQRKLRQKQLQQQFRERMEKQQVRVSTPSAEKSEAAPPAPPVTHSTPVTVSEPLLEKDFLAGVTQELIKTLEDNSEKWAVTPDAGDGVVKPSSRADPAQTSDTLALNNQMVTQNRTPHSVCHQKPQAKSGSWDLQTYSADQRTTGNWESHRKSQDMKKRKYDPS
Type: functional, biochemical
`O=C1Nc2cc(C(=O)NCCCN3CCCC3)ccc2S/C1=C/c1cccc(Cl)c1` was tested, and the AC50 was 7.29 µM (active).

The compounds below were run against T2, Endoribonuclease toxin MazF (assay: fluorescent RNA oligo signal without MazF, dose response, counter-screen for MazEF activator project, biochemical, fluorescence, single-stranded RNase substrate (AID 588502)).
Type: functional
`Cc1cc(NC(=O)/C(C#N)=C\c2ccc(-c3ccc(SC(F)F)cc3)o2)n(-c2ccccc2)n1` was tested, and the EC50 was 22.8 µM (inactive).
With `COC(=O)c1nn2c(C(F)(F)F)cc(-c3ccc(Br)o3)nc2c1Br` the EC50 was 30.5 µM (inactive).
With `C=CCn1c(=O)/c(=C\c2ccccn2)s/c1=C(/C#N)C(=O)NCC1CCCO1` (stereo not drawn) the EC50 was > 99 µM (inactive).
In the case of `CSc1ccc(S(=O)(=O)NCC(=O)OCCOc2ccccc2)cc1[N+](=O)[O-]`, the EC50 is reported as > 99 µM (inactive).
`CC(=O)CSc1nc2cc3c(cc2cc1C#N)OCCO3` was tested, and the EC50 was 29.5 µM (inactive).
With `COc1ccccc1N1C(=O)S/C(=C\c2cc(C)n(C)c2C)C1=O` the EC50 was 30.6 µM (inactive).
For `Cc1ccc(-c2ccccc2NC(=O)C[S+]([O-])CC(=O)Nc2ccc(C)c(Cl)c2)o1` (stereo not drawn), the EC50 was 41.5 µM (inactive).
